From the supplement of paper PMC4862054

Legend:
Details in all cases: incubation time: 72 h
[1] = tested on: Hs578T; assay: drug sensitivity score (DSS), CellTiter-Glo (DSS (AUC-based score)); higher = stronger drug effect (viability inhibition or cytotoxicity); extreme values may be limits of the assay
In short: (§1)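 Plates with 384 wells held compound at 5 concentrations in 10-fold steps over a 10,000-fold range specific to each compound. Breast cancer cell lines were added in 20 µl suspension and incubated 72 h, then read for CellTox Green and CellTiter-Glo signals, with each plate normalised to 0.1 % DMSO and a positive kill control. The drug sensitivity score is based on the area under the fitted dose-response curve.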

[2] = tested on: MFM-223; assay: as above
In short: as §1

[3] = tested on: MDA-MB-468; assay: as above
In short: as §1

[4] = tested on: CAL-51; assay: as above
In short: as §1

[5] = tested on: CAL-120; assay: as above
In short: as §1

[6] = tested on: MCF-10A; assay: drug sensitivity score (DSS), CellTox Green (DSS (AUC-based score)); higher = stronger drug effect (viability inhibition or cytotoxicity); extreme values may be limits of the assay
In short: as §1

[7] = tested on: CAL-85-1; assay: as above
In short: as §1

[8] = tested on: Hs578T; assay: as above
In short: as §1

[9] = tested on: MDA-MB-453; assay: as above
In short: as §1

[10] = tested on: DU-4475; assay: as above
In short: as §1

[11] = tested on: MFM-223; assay: as above
In short: as §1

[12] = tested on: MDA-MB-468; assay: as above
In short: as §1

[13] = tested on: MDA-MB-436; assay: as above
In short: as §1

[14] = tested on: BT-549; assay: as above
In short: as §1

[15] = tested on: MDA-MB-231; assay: as above
In short: as §1

[16] = tested on: HCC1937; assay: as above
In short: as §1

[17] = tested on: CAL-51; assay: as above
In short: as §1

[18] = tested on: HDQ-P1; assay: as above
In short: as §1

[19] = tested on: CAL-120; assay: as above
In short: as §1

[20] = tested on: CAL-148; assay: as above
In short: as §1

[21] = tested on: HCC1599; assay: as above
In short: as §1

[22] = tested on: BT-474; assay: as above
In short: as §1

[23] = tested on: HCC1143; assay: as above
In short: as §1

Measured: drug sensitivity score

CCc1c(C(=O)C(N)=O)c2c(OCC(=O)O)cccc2n1Cc1ccccc1 [Varespladib]
0: all assays above
